Test results published in paper PMC11494662, “Insight into the Course of the Ferrier Rearrangement Used to Obtain Untypical Diosgenyl Saponins” (The Journal of Organic Chemistry, 2024).
Converted amounts (≈) assume the structure as drawn.

Tests used:
E. faecium ATCC 29212 = experiment: MIC, broth dilution method; assay type: cell-based; settings: Enterococcus faecium, ATCC29212; MHB II, 18 h, 37 °C; read-out: Minimum inhibitory concentration E. faecium ATCC 29212
Experimental: (§1) MIC was determined with the dilution method in Mueller–Hinton II broth (MHB II) on 96-well polystyrene plates. The reference strains (Polish Academy of Sciences, Wroclaw, Poland) of Gram-positive bacteria (Enterococcus faecium ATCC 29,212, S. aureus ATCC 6538, S. aureus ATCC 43,300, S. aureus ATCC 12,598, S. aureus ATCC 25,923, S. aureus, ATCC 33,591, Staphylococcus epidermidis ATCC 14,990) and Gram-negative bacteria (Acinetobacter baumanii ATCC 23,506, Escherichia coli ATCC 25,922, Klebsiella pneumoniae ATCC 700,603, Pseudomonas aeruginosa ATCC 9027) were suspended in MHB II medium to initial inoculum of 10^5 cfu/mL. The microbes were exposed to graded concentrations of tested compounds (range 0.5–256 mg/L) for 18 h at 37 °C under aerobic conditions. The compounds were dissolved in DMSO and then diluted with PBS. […] MIC was taken as the lowest concentration at which no microbial growth was observed. The experiments were performed in triplicate.

S. aureus ATCC 6538 = experiment: MIC, broth dilution method; assay type: cell-based; settings: Staphylococcus aureus, ATCC6538; MHB II, 18 h, 37 °C; read-out: Minimum inhibitory concentration S. aureus ATCC 6538
Experimental: as §1

S. aureus ATCC 12598 = experiment: MIC, broth dilution method; assay type: cell-based; settings: Staphylococcus aureus, ATCC12598; MHB II, 18 h, 37 °C; read-out: Minimum inhibitory concentration S. aureus ATCC 12598
Experimental: as §1

S. aureus ATCC 25923 = experiment: MIC, broth dilution method; assay type: cell-based; settings: Staphylococcus aureus, ATCC25923; MHB II, 18 h, 37 °C; read-out: Minimum inhibitory concentration S. aureus ATCC 25923
Experimental: as §1

S. aureus ATCC 43300 = experiment: MIC, broth dilution method; assay type: cell-based; settings: Staphylococcus aureus, ATCC43300; MHB II, 18 h, 37 °C; read-out: Minimum inhibitory concentration S. aureus ATCC 43300
Experimental: as §1

S. aureus ATCC 33591 = experiment: MIC, broth dilution method; assay type: cell-based; settings: Staphylococcus aureus, ATCC33591; MHB II, 18 h, 37 °C; read-out: Minimum inhibitory concentration S. aureus ATCC 33591
Experimental: as §1

[1] = test system: S. epidermidis ATCC 14990; experiment: MIC, broth dilution method; assay type: cell-based; settings: Staphylococcus epidermidis, ATCC14990; MHB II, 18 h, 37 °C; read-out: Minimum inhibitory concentration S. epidermidis ATCC 14990
Experimental: as §1

[2] = test system: human keratinocytes (HaCaT line); experiment: MTT cytotoxicity assay, HaCaT; assay type: cell-based; settings: HaCaT normal cells, 48 h treatment; for IC50: Homo sapiens
Experimental: (§2) The MTT assay was performed to specify the cytotoxicity of 7–12 and 13–18 against prostate cancer cells (PC3 line), breast cancer cells (MCF7 line), and human keratinocytes (HaCaT line). The mentioned cell lines were assayed by exposing them for 48 h to a medium containing the studied compounds over a wide range of concentrations. The IC50 values (dose of the compound which caused a 50% reduction of cell viability) and the selectivity indexes (SI), which show the ratio of IC50 for normal cell line to IC50 for cancer cell line, are shown in Table S2. An MTT assay was performed to specify the cytotoxicity of the studied compounds against breast cancer cells (MCF-7 line, ATCC), prostate cancer cells (PC3 line, ATCC) and human keratinocytes (HaCaT line, CLS). The MCF-7 cell line was cultured in an RPMI 1640 medium (Gibco, Thermo Fisher Scientific), the PC3 cell line in a F-12K medium (Gibco, Thermo Fisher Scientific), and the HaCaT cell line in a high-glucose DMEM (Gibco, Thermo Fisher Scientific). Each medium was supplemented with 10% fetal bovine serum (Gibco, Thermo Fisher Scientific) and antibiotics (penicillin and streptomycin, Gibco, Thermo Fisher Scientific). Cells were seeded at a density of 4000 per well into 96-well plates and incubated at 37 °C in a 5% CO2 atmosphere. The cells were treated with studied compounds in a concentration range of 0.1–100 μg/mL or with a vehicle (1% DMSO) as a control and subsequently incubated for 48 h. Thereafter, the MTT salt solution (3-(4,5-dimethylthiazol-2-yl)-2,5-diphenyltetrazolium bromide, VWR) was added at a concentration of 4 mg/mL (25 μL per well), and the obtained product (formazan) after 3 h of incubation was dissolved in DMSO. An EnSpire microplate reader (PerkinElmer) was used to measure absorbance at 570 nm (the reference wavelength was 660 nm). The viability of the control cells was taken as 100%. Three independent experiments were conducted in triplicate. Statistical analysis of the results and estimation of IC50 values were performed using GraphPad Prism 7 software.

[3] = test system: prostate cancer cells (PC3 line); experiment: MTT cytotoxicity assay, PC3; assay type: cell-based, human; settings: for IC50: Homo sapiens, PC-3; for IC50 / IC50 PC3: PC3 cells, 48 h treatment, MTT; for SI PC3 (selectivity index): ratio of IC50 for normal cell line (HaCaT) to IC50 for PC3, 48 h
Experimental: as §2

[4] = test system: breast cancer cells (MCF-7 line); experiment: MTT cytotoxicity assay, MCF7; assay type: cell-based, human; settings: for IC50: Homo sapiens; for IC50 / IC50 MCF7: MCF7 cells, 48 h treatment, MTT; for SI MCF7 (selectivity index): ratio of IC50 for normal cell line (HaCaT) to IC50 for MCF7, 48 h
Experimental: as §2

Compound	MIC (E. faecium ATCC 29212) [µg/mL]	MIC (S. aureus ATCC 6538) [µg/mL]	MIC (S. aureus ATCC 12598) [µg/mL]	MIC (S. aureus ATCC 25923) [µg/mL]	MIC (S. aureus ATCC 43300) [µg/mL]	MIC (S. aureus ATCC 33591) [µg/mL]	MIC [1] [µg/mL]	IC50 [2] [µM]	IC50 [3] [µM]	SI PC3 (selectivity index) [3]	IC50 [4] [µM]	SI MCF7 (selectivity index) [4]	IC50 HaCaT [2]	IC50 HaCaT ([2]; listed as 11)	IC50 PC3 [3]	IC50 PC3 ([3]; listed as 11)	IC50 MCF7 [4]	IC50 MCF7 ([4]; listed as 11)	SI MCF7 (selectivity index) ([4]; listed as 12)
C[C@@H]1CC[C@@]2(OC1)O[C@H]1C[C@H]3[C@@H]4CC=C5C[C@@H](O[C@@H]6C=C[C@H](O)[C@@H](CO)O6)CC[C@]5(C)[C@H]4CC[C@]3(C)[C@H]1[C@@H]2C [7α, Diosgenyl 2,3-Dideoxy-α-D-erythro-Hex-2-enopyranoside]	256 (≈ 472 µM)	256 (≈ 472 µM)	> 256	> 256	> 256	> 256	256 (≈ 472 µM)	20.2	16.8	1.20	56.1	0.36	–	–	–	–	–	–	–
C[C@@H]1CC[C@@]2(OC1)O[C@H]1C[C@H]3[C@@H]4CC=C5C[C@@H](O[C@@H]6C=C[C@@H](O)[C@@H](CO)O6)CC[C@]5(C)[C@H]4CC[C@]3(C)[C@H]1[C@@H]2C [8α, Diosgenyl 2,3-Dideoxy-α-D-threo-hex-2-enopyranoside]	> 256	> 256	> 256	> 256	> 256	> 256	> 256	22.2	21.4	1.04	44.9	0.49	–	–	–	–	–	–	–
C[C@@H]1CC[C@@]2(OC1)O[C@H]1C[C@H]3[C@@H]4CC=C5C[C@@H](O[C@H]6C=C[C@@H](O)[C@H](C)O6)CC[C@]5(C)[C@H]4CC[C@]3(C)[C@H]1[C@@H]2C [9α, Diosgenyl 2,3,6-Trideoxy-α-L-erythro-hex-2-enopyranoside]	> 256	> 256	> 256	> 256	> 256	> 256	> 256	43.4	25.4	1.71	183	0.24	–	–	–	–	–	–	–
C[C@@H]1CC[C@@]2(OC1)O[C@H]1C[C@H]3[C@@H]4CC=C5C[C@@H](O[C@H]6C=C[C@H](O)[C@H](C)O6)CC[C@]5(C)[C@H]4CC[C@]3(C)[C@H]1[C@@H]2C [10α, Diosgenyl 2,3,6-Trideoxy-α-L-threo-hex-2-enopyranoside]	> 256	> 256	> 256	> 256	> 256	> 256	> 256	50.9	49.7	1.02	57.6	0.88	–	–	–	–	–	–	–
C[C@@H]1CC[C@@]2(OC1)O[C@H]1C[C@H]3[C@@H]4CC=C5C[C@@H](O[C@@H]6C=C[C@H](O)CO6)CC[C@]5(C)[C@H]4CC[C@]3(C)[C@H]1[C@@H]2C [11α]	> 256	256 (≈ 499 µM)	> 256	> 256	> 256	> 256	256 (≈ 499 µM)	24.5	24.4	1.00	40.6	0.60	–	–	–	–	–	–	–
C[C@@H]1CC[C@@]2(OC1)O[C@H]1C[C@H]3[C@@H]4CC=C5C[C@@H](O[C@H]6C=C[C@H](O)CO6)CC[C@]5(C)[C@H]4CC[C@]3(C)[C@H]1[C@@H]2C [11β]	> 256	> 256	> 256	> 256	> 256	> 256	> 256	–	–	–	–	–	completely inactive	inactive	completely inactive	inactive	completely inactive	inactive	–
C[C@@H]1CC[C@@]2(OC1)O[C@H]1C[C@H]3[C@@H]4CC=C5C[C@@H](O[C@@H]6C=C[C@@H](O)CO6)CC[C@]5(C)[C@H]4CC[C@]3(C)[C@H]1[C@@H]2C [12β]	> 256	256 (≈ 499 µM)	> 256	> 256	> 256	> 256	> 256	57.9	27.9	–	35.6	ca. 2	–	–	–	–	–	–	1.62
C[C@@H]1CC[C@@]2(OC1)O[C@H]1C[C@H]3[C@@H]4CC=C5C[C@@H](O[C@@H]6CC[C@H](O)[C@@H](CO)O6)CC[C@]5(C)[C@H]4CC[C@]3(C)[C@H]1[C@@H]2C [13α, Diosgenyl 2,3-Dideoxy-α-D-erythro-hexopyranoside]	> 256	> 256	> 256	> 256	> 256	> 256	> 256	21.6	22.5	0.96	38.6	0.56	–	–	–	–	–	–	–
C[C@@H]1CC[C@@]2(OC1)O[C@H]1C[C@H]3[C@@H]4CC=C5C[C@@H](O[C@H]6CC[C@@H](O)[C@H](C)O6)CC[C@]5(C)[C@H]4CC[C@]3(C)[C@H]1[C@@H]2C [15α, Diosgenyl 2,3,6-Trideoxy-α-L-erythro-hexopyranoside]	> 256	256 (≈ 484 µM)	> 256	256 (≈ 484 µM)	> 256	> 256	> 256	56.9	26.5	–	87.1	–	–	–	–	–	–	–	–
C[C@@H]1CC[C@@]2(OC1)O[C@H]1C[C@H]3[C@@H]4CC=C5C[C@@H](O[C@H]6CC[C@H](O)[C@H](C)O6)CC[C@]5(C)[C@H]4CC[C@]3(C)[C@H]1[C@@H]2C [16α, Diosgenyl 2,3,6-Trideoxy-α-L-threo-hexopyranoside]	> 256	> 256	> 256	> 256	> 256	> 256	> 256	30.6	29.9	1.02	36.6	0.84	–	–	–	–	–	–	–
C[C@@H]1CC[C@@]2(OC1)O[C@H]1C[C@H]3[C@@H]4CC=C5C[C@@H](OC6CC[C@H](O)CO6)CC[C@]5(C)[C@H]4CC[C@]3(C)[C@H]1[C@@H]2C (stereo partly drawn) [17β]	> 256	256 (≈ 497 µM)	> 256	> 256	> 256	> 256	> 256	33.9	23.2	1.46	26.3	1.29	–	–	–	–	–	–	–
